In publication PMC8881512 (Nature Communications, 2022):

Columns and labels:
PHKg2 = biological target: T1, PHKg2 (Homo sapiens, UniProt P15735); test: Kinome profiling; type: biochemical; settings: VT02956 (5 nM), read-out: % enzymatic activity relative to DMSO controls
T1 construct: LATS1/LATS2 enzymes from Signalchem

T47D cells = test: Cell proliferation by cell counting, T47D; type: cell-based; settings: 0.5 µM or 2 µM, time course to 8 days; Supplementary Fig. 8c, d
Method: Cell proliferation rates were determined by automated cell counter. In brief, cells were plated at density of 0.1 million cells per well in six-well plate. Cell numbers were counted by the indicated time point as stated in the figure legends.

FER = biological target: T2, FER (Homo sapiens, UniProt P16591); test: Kinome profiling; type: biochemical; settings: VT02956 (5 nM), read-out: % enzymatic activity relative to DMSO controls
T2 construct: LATS1/LATS2 enzymes from Signalchem
T2 sequence (P16591 whole entry): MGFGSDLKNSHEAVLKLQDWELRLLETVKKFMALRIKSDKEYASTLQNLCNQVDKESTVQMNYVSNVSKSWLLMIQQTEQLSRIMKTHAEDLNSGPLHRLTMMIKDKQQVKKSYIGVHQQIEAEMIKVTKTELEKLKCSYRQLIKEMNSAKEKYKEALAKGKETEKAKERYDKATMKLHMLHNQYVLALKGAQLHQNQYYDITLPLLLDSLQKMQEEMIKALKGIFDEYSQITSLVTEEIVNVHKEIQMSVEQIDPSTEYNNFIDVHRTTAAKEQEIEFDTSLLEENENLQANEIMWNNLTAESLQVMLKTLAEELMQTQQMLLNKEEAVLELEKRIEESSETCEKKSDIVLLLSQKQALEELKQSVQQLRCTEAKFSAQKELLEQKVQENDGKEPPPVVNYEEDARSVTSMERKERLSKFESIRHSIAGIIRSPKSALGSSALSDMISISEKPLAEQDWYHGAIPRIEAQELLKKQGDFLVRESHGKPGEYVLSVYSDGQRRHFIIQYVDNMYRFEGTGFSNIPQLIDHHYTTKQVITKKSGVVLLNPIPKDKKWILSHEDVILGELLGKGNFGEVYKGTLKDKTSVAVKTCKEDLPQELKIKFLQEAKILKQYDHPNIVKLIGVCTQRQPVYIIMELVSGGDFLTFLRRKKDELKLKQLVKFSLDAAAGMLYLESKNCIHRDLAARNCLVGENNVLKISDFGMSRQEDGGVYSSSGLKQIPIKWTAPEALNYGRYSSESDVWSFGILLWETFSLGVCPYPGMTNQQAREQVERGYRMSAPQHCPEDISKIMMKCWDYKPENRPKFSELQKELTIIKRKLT

CAMK2d = biological target: T3, CAMK2d (Homo sapiens, UniProt Q13557); test: Kinome profiling; type: biochemical; settings: VT02956 (5 nM), read-out: % enzymatic activity relative to DMSO controls
T3 construct: LATS1/LATS2 enzymes from Signalchem
T3 sequence (Q13557 whole entry): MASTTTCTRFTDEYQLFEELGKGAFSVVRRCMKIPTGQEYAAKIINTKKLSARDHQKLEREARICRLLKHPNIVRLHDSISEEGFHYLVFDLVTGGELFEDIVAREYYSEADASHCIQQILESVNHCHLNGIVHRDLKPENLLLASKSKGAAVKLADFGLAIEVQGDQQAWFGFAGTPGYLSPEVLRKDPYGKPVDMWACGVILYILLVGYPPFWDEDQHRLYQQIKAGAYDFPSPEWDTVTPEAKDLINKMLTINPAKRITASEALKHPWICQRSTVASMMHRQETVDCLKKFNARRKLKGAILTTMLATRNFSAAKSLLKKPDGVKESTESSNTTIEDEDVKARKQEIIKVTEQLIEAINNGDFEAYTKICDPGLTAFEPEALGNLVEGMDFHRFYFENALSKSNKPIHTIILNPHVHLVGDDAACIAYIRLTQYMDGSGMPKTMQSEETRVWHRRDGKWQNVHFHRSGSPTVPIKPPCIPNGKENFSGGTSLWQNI

WNK3 = biological target: T4, WNK3 (Homo sapiens, UniProt Q9BYP7); test: Kinome profiling; type: biochemical; settings: VT02956 (5 nM), read-out: % enzymatic activity relative to DMSO controls
T4 construct: LATS1/LATS2 enzymes from Signalchem
T4 sequence (Q9BYP7 whole entry): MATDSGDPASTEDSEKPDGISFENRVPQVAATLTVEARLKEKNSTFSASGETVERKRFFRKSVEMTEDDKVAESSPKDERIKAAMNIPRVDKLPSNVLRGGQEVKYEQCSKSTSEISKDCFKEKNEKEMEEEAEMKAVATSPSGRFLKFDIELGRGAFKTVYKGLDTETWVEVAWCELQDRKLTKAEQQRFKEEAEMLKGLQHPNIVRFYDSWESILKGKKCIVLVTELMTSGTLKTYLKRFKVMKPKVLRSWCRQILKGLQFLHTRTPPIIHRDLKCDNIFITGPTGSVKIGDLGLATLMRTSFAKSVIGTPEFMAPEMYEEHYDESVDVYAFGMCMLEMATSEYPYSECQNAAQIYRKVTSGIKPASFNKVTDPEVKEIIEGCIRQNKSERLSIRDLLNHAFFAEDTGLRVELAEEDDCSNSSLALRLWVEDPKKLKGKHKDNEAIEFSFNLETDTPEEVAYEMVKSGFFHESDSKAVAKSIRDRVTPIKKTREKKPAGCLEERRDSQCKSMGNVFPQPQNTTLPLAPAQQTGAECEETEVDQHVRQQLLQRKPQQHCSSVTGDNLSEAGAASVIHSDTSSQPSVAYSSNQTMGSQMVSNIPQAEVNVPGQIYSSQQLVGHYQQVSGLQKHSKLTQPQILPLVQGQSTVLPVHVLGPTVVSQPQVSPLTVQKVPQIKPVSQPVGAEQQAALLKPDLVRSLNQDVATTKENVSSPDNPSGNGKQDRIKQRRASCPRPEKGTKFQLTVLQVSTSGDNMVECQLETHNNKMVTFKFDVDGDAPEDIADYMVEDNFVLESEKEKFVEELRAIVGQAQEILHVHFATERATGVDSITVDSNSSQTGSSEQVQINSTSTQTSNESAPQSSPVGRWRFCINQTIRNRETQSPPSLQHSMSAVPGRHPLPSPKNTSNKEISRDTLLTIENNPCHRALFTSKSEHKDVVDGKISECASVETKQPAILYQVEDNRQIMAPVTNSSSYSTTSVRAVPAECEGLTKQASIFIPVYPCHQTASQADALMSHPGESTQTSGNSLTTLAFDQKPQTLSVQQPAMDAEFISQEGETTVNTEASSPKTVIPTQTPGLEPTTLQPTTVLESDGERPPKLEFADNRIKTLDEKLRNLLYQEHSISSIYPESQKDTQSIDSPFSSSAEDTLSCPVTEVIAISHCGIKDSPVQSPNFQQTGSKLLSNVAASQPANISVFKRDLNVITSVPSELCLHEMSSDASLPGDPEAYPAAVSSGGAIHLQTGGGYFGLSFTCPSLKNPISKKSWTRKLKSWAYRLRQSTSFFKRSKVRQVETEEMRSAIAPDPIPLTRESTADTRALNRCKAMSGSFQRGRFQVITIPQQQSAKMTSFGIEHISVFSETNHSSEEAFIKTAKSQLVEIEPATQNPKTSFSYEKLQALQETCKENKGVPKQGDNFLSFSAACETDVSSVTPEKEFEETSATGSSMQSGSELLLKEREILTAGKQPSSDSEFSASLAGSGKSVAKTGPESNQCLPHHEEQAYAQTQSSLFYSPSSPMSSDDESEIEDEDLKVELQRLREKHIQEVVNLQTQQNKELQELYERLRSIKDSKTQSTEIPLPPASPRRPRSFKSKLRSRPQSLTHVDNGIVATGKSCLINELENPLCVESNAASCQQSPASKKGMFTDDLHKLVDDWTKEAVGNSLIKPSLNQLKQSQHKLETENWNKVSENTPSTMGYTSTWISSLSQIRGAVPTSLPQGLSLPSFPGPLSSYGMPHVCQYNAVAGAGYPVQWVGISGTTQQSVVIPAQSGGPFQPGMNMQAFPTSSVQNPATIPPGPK

TXK = biological target: T5, TXK (Homo sapiens, UniProt P42681); test: Kinome profiling; type: biochemical; settings: VT02956 (5 nM), read-out: % enzymatic activity relative to DMSO controls
T5 construct: LATS1/LATS2 enzymes from Signalchem

MSK2/RPS6KA4 = biological target: T6, MSK2/RPS6KA4 (Homo sapiens, UniProt O75676); test: Kinome profiling; type: biochemical; settings: VT02956 (5 nM), read-out: % enzymatic activity relative to DMSO controls
T6 construct: LATS1/LATS2 enzymes from Signalchem
T6 sequence (O75676 whole entry): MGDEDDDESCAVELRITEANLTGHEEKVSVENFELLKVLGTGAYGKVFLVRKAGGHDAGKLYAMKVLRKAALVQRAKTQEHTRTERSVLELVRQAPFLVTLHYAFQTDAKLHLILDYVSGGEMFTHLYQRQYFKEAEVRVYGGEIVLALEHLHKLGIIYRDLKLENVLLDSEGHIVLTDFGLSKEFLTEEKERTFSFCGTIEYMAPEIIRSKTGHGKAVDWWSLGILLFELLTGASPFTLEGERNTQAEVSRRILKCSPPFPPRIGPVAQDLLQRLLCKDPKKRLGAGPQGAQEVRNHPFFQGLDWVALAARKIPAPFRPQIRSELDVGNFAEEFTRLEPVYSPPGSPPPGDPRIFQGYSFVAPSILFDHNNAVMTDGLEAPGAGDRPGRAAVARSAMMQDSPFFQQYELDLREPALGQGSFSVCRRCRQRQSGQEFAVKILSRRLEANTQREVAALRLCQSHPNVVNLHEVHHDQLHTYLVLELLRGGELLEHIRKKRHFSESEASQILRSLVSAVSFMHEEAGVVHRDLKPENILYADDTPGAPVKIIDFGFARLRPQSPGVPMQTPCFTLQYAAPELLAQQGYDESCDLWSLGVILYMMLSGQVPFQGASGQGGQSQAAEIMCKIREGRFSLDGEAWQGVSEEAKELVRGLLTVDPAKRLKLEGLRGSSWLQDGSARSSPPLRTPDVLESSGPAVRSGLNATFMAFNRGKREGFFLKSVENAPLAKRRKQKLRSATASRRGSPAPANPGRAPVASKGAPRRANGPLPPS

p70S6Kb/RPS6KB2 = biological target: T7, p70S6Kb/RPS6KB2 (Homo sapiens, UniProt Q9UBS0); test: Kinome profiling; type: biochemical; settings: VT02956 (5 nM), read-out: % enzymatic activity relative to DMSO controls
T7 construct: LATS1/LATS2 enzymes from Signalchem
T7 sequence (Q9UBS0 whole entry): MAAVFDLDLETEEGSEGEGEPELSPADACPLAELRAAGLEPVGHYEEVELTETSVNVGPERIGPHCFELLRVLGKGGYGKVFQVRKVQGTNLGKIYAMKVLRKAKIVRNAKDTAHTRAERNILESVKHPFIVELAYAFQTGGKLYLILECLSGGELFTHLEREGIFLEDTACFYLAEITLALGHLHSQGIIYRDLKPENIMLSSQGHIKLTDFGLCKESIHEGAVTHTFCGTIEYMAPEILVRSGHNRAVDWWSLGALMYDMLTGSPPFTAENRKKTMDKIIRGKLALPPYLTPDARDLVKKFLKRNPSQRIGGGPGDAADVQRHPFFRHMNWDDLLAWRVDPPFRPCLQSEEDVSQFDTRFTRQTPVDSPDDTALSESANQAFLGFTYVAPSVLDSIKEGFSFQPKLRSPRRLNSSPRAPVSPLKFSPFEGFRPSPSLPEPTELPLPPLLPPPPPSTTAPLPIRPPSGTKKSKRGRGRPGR

T1 sequence (P15735 whole entry): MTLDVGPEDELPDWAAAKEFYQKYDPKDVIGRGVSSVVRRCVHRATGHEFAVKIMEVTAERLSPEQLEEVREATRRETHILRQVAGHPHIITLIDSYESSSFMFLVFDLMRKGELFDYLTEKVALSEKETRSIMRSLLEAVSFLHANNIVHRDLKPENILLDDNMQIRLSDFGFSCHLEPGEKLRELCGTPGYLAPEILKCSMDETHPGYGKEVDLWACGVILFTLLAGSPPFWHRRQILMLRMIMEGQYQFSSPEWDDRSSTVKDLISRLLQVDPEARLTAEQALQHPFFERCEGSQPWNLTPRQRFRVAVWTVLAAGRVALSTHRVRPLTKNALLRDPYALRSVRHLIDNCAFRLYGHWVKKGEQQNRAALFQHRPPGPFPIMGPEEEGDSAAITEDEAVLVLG

remaining activity at 0.005 µM (PHKg2): 82%
remaining activity at 0.005 µM (FER): 78%
remaining activity at 0.005 µM (CAMK2d): 77%
remaining activity at 0.005 µM (WNK3): 82%
remaining activity at 0.005 µM (TXK): 83%
remaining activity at 0.005 µM (MSK2/RPS6KA4): 78%
remaining activity at 0.005 µM (p70S6Kb/RPS6KB2): 65%
SMILES: NCC1CCN(c2nc(-c3ccncc3)nc3c(C#CCO)cccc23)CC1 [VT02956]
T47D proliferation (T47D cells): inhibited the proliferation of MCF-7 and T47D cells
